The values that follow come from ChEMBL document CHEMBL3091334, “Design and synthesis of novel 3-(benzo[d]oxazol-2-yl)-5-(1-(piperidin-4-yl)-1H-pyrazol-4-yl)pyridin-2-amine derivatives as selective G-protein-coupled receptor kinase-2 and -5 inhibitors” (Bioorg Med Chem Lett, 2013).

The target of experiment [1] is T1, Beta-adrenergic receptor kinase 1 (Homo sapiens, UniProt P25098).
T1 sequence (P25098 whole entry): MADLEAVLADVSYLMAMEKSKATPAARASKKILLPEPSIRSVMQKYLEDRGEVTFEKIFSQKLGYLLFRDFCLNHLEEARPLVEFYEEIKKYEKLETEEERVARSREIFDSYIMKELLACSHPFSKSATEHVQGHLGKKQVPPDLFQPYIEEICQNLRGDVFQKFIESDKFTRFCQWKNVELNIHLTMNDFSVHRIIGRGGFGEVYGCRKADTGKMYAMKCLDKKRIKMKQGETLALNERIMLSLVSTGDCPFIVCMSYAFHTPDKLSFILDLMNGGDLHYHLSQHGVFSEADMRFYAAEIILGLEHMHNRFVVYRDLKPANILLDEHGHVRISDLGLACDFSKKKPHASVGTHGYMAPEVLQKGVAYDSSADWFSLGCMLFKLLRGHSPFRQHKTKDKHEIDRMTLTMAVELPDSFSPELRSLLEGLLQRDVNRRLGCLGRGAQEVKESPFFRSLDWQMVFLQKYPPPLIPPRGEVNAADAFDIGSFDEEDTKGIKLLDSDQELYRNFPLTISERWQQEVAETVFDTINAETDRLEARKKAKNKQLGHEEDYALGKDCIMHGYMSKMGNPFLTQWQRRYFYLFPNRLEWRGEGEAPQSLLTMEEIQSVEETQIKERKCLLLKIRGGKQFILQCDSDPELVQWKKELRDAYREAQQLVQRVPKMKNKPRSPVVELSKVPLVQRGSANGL
Kind of experiment: Inhibition of GRK-2 (unknown origin) preincubated with enzyme for 10 mins before adding peptide substrate and ATP measured after 1 hr by LANCE-TR-FRET assay.

Experiment [2] deals with G protein-coupled receptor kinase 5 (Homo sapiens, UniProt P34947).
G protein-coupled receptor kinase 5, sequence (P34947 whole entry): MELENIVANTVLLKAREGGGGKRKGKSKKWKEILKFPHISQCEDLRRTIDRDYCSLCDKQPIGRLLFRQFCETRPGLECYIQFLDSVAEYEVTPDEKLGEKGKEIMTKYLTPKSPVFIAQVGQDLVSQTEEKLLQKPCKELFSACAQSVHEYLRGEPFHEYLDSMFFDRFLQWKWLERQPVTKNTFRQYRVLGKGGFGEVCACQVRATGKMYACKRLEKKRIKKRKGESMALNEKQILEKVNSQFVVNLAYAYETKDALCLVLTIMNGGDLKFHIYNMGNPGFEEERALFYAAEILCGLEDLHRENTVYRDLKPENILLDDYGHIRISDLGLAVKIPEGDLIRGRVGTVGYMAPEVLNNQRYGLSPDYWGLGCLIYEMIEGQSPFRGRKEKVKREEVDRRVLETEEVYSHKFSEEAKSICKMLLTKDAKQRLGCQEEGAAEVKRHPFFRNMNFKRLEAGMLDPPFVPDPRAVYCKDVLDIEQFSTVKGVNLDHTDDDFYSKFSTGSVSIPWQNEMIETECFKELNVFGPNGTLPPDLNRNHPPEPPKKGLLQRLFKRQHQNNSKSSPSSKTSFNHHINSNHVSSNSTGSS
Description: Inhibition of GRK-5 (unknown origin) preincubated with enzyme for 10 mins before adding peptide substrate and ATP measured after 1 hr by LANCE-TR-FRET assay
Experiment [3] has as its target ALK tyrosine kinase receptor (Homo sapiens, UniProt Q9UM73). Kind of experiment: Inhibition of ALK (unknown origin).
For experiment [4], the target named is Hepatocyte growth factor receptor (Homo sapiens, UniProt P08581). The experiment is described as follows: Inhibition of c-Met (unknown origin).
Hepatocyte growth factor receptor, sequence (P08581 whole entry): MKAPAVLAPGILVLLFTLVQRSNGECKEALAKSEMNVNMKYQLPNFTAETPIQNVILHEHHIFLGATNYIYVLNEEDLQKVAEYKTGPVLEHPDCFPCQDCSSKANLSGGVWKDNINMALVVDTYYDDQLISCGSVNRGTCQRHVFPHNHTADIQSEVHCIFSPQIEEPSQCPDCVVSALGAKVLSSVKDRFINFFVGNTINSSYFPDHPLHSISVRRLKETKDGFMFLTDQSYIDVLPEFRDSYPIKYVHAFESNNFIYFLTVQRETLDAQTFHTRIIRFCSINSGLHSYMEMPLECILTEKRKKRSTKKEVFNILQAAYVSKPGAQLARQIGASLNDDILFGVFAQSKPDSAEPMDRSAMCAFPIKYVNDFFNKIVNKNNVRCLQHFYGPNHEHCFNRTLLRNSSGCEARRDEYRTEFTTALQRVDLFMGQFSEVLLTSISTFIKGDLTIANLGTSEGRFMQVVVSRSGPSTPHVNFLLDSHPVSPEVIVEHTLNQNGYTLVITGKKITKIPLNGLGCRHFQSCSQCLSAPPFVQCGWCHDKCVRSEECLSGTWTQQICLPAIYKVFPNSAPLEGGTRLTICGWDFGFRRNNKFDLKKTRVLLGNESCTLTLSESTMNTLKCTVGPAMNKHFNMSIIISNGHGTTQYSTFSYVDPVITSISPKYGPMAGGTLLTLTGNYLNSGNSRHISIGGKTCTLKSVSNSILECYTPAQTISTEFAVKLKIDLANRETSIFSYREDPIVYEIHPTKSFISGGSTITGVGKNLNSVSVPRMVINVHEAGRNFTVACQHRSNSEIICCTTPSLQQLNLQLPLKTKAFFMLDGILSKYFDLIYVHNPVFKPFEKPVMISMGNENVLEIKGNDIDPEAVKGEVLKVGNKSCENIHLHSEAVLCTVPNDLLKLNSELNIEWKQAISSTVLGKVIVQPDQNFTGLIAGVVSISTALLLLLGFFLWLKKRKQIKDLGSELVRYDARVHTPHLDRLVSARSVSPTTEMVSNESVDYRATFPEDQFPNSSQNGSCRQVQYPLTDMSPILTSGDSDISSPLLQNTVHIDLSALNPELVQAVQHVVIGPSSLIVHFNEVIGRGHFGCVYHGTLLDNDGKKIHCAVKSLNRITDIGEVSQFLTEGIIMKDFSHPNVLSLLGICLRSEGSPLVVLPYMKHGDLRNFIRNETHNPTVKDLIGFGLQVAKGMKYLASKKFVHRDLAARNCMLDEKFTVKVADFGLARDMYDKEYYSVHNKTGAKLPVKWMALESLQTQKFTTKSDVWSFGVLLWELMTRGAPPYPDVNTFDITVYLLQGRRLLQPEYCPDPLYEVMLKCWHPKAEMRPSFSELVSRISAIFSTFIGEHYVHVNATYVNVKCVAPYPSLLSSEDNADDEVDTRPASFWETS

A value given as a limit tells only on which side of the number the result lay.

ALK tyrosine kinase receptor, sequence (Q9UM73 whole entry): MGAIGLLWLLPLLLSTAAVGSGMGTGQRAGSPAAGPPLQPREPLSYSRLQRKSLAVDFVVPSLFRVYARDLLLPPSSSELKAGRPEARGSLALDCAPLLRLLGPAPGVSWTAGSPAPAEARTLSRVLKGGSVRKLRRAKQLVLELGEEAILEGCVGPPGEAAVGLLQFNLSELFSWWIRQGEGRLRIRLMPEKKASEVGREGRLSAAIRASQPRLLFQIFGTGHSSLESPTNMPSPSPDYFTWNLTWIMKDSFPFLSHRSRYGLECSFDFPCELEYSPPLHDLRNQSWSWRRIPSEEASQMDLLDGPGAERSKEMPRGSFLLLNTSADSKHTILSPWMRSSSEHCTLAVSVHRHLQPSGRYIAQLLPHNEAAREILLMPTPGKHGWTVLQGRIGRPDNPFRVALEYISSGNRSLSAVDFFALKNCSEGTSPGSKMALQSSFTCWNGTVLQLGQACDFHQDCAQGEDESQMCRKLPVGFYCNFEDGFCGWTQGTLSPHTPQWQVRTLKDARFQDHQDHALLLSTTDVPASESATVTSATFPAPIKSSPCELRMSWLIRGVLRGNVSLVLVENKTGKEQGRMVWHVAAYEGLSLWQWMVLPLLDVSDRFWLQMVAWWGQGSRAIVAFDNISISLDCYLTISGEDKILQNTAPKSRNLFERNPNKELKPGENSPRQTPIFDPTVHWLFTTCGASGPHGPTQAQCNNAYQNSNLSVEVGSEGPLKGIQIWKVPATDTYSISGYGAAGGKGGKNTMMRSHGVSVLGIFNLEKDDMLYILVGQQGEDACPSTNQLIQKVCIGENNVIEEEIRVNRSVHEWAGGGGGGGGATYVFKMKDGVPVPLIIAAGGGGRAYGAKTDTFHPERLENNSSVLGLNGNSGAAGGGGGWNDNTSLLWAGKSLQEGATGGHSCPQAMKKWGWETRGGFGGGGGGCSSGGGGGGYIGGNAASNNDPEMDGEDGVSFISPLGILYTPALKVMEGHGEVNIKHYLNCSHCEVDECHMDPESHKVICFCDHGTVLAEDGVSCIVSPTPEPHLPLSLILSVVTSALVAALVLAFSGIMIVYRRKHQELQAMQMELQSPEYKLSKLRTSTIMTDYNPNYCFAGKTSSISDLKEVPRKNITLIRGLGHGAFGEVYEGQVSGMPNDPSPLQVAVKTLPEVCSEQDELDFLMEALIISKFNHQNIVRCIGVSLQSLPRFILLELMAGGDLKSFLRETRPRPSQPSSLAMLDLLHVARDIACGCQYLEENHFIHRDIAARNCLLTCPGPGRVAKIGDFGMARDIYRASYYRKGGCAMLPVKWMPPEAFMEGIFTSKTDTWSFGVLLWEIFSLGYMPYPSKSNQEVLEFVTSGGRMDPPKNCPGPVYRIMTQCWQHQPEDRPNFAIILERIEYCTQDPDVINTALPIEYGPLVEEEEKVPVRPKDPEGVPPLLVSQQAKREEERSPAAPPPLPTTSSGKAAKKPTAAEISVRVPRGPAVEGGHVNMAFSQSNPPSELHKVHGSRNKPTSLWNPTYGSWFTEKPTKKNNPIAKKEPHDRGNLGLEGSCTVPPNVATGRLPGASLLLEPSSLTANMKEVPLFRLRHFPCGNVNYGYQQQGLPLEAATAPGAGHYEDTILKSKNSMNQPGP

As to `Nc1ncc(-c2cnn(C3CCNCC3)c2)cc1-c1nc2ccc(Nc3cc(F)cc(F)c3)cc2o1`, the 50% inhibitory concentration (IC50) (commonly the concentration that gives 50% inhibition) in experiment [1] turned out to be 2.26 µM; in experiment [2] it was 1.25 µM.

Consider `Nc1ncc(-c2cnn(C3CCNCC3)c2)cc1-c1nc2cc(Nc3ccccc3)ccc2o1`, for which the concentration for half-maximal inhibition (IC50) came to 4.9 µM in experiment [1] and 3.5 µM in experiment [2].

On to `Cc1ccc(S(=O)(=O)NC(=O)Nc2ccc3nc(-c4cc(-c5cnn(C6CCNCC6)c5)cnc4N)oc3c2)cc1`, for which the IC50 in experiment [1] is 8.3 µM.

With `CCc1ccc2nc(-c3cc(-c4cnn(C5CCNCC5)c4)cnc3N)oc2c1O`, the IC50 is above 10 µM in experiment [1] and 3.4 µM in experiment [2].

For the compound `Nc1ncc(-c2cnn(C3CCNCC3)c2)cc1-c1nc2ccc(Nc3c(F)cccc3F)cc2o1`, the values for the IC50 in experiment [1] and in experiment [2] were 11.5 µM and 4.7 µM, respectively.

Regarding `Nc1ncc(-c2cnn(C3CCNCC3)c2)cc1-c1nc2ccc(N3CCOCC3)cc2o1`, the IC50 stood at 5.3 µM in experiment [1] and 0.81 µM in experiment [2].

For the compound `CN(C)COc1cccc(-c2cnc(N)c(-c3nc4cccc(-c5ccccn5)c4o3)c2)c1`, the results for the IC50 in experiment [1] and in experiment [2] were above 10 µM and 5.1 µM, respectively.

`Nc1ccc2oc(-c3cc(-c4cnn(C5CCNCC5)c4)cnc3N)nc2c1`: the IC50 in experiment [1] is 4.22 µM.

In experiment [1], `CCCCNc1ccc2oc(-c3cc(-c4cnn(C5CCNCC5)c4)cnc3N)nc2c1` displayed a concentration for half-maximal inhibition (IC50) of 5.52 µM.

`Nc1ncc(-c2cnn(C3CCNCC3)c2)cc1-c1nc2ccc(Oc3cc(Cl)ccn3)cc2o1`: the IC50 came out at 17 µM in experiment [1] and 5.7 µM in experiment [2].

For the compound `Nc1ncc(-c2cnn(C3CCNCC3)c2)cc1-c1nc2ccc(Oc3ccccc3)cc2o1`, the results for the half-maximal inhibitory concentration (IC50) in experiment [1] and in experiment [2] were above 10 µM and 4 µM, respectively.

`CC(C)NC(=O)c1cc2nc(-c3cc(-c4cnn(C5CCNCC5)c4)cnc3N)oc2cc1O` registered an IC50 in experiment [1] above 10 µM.

For `COc1ccc2nc(-c3cc(-c4cnn(C5CCNCC5)c4)cnc3N)oc2c1-c1ccc2cn[nH]c2c1`, the IC50 is 9.16 µM in experiment [1] and 2.21 µM in experiment [2].

Regarding `Nc1ncc(-c2cnn(C3CCNCC3)c2)cc1-c1nc2ccc(-c3ccc4[nH]ncc4c3)cc2o1`, the IC50 stood at 4.05 µM in experiment [1] and 1.14 µM in experiment [2].

Regarding `Nc1ncc(-c2cnn(C3CCNCC3)c2)cc1-c1nc2ccc(NC(=O)c3ccc(C(F)(F)F)cc3)cc2o1`, the values for the IC50 in experiment [1] and in experiment [2] were 3.2 µM and 2.83 µM, respectively.

For `Nc1ncc(-c2cccc(C(=O)NCCN3CCOCC3)c2)cc1-c1nc2cccc(-c3ccccn3)c2o1`, the IC50 in experiment [1] is above 10 µM.

`Nc1ncc(-c2cnn(C3CCNCC3)c2)cc1-c1nc2ccc(Nc3cc(C(F)(F)F)cc(C(F)(F)F)c3)cc2o1`: the IC50 in experiment [1] was found to be 5.7 µM; in experiment [2], 4.2 µM.

As to `Nc1ncc(-c2cnn(C3CCNCC3)c2)cc1-c1nc2cc(-c3ccccc3)ccc2o1`, the IC50 in experiment [1] was above 10 µM; in experiment [2], 4.5 µM.

For the compound `Cc1c(O)ccc2nc(-c3cc(-c4cnn(C5CCNCC5)c4)cnc3N)oc12`, the IC50 in experiment [1] is 13 µM; in experiment [2], 2.2 µM.

Take `COc1ccc(C(=O)Nc2ccc3nc(-c4cc(-c5cnn(C6CCNCC6)c5)cnc4N)oc3c2)cc1`: the results for the IC50 in experiment [1] and in experiment [2] were 3.97 µM and 2.09 µM, respectively.

As to `CN(c1ccccc1)c1ccc2oc(-c3cc(-c4cnn(C5CCNCC5)c4)cnc3N)nc2c1`, the IC50 is 13 µM in experiment [1] and 5.05 µM in experiment [2].

As for `Nc1ncc(-c2cnn(C3CCNCC3)c2)cc1-c1nc2ccc(Nc3ccc(F)cc3)cc2o1`, the IC50 turned out to be 9.3 µM in experiment [1] and 3.7 µM in experiment [2].

On to `CC(=O)Nc1ccc2oc(-c3cc(-c4cnn(C5CCNCC5)c4)cnc3N)nc2c1`, for which the IC50 in experiment [1] came to 3.06 µM; in experiment [2] it was 3.22 µM.

As to `CN(C)c1ccc2oc(-c3cc(-c4cnn(C5CCNCC5)c4)cnc3N)nc2c1`, the IC50 in experiment [1] worked out at 8.27 µM; in experiment [2], 1.76 µM.

As to `N#Cc1ccnc(Oc2ccc3nc(-c4cc(-c5cnn(C6CCNCC6)c5)cnc4N)oc3c2)c1`, the IC50 stood at 8.1 µM in experiment [1] and 3.6 µM in experiment [2].

Turning to `Nc1ncc(-c2cnn(C3CCNCC3)c2)cc1-c1nc2ccc(Oc3ccc(-c4ccccc4)nn3)cc2o1`, the IC50 is 3.8 µM in experiment [1] and 1.2 µM in experiment [2].

As to `Nc1ncc(-c2cnn(C3CCNCC3)c2)cc1-c1nc2ccc(NC(=O)Nc3ccc(F)cc3)cc2o1`, the midpoint of inhibition in experiment [1], the IC50, lay at 1.72 µM.

In turn, `COc1ccc(-c2c(O)ccc3nc(-c4cc(-c5cnn(C6CCNCC6)c5)cnc4N)oc23)cc1` yielded an IC50 in experiment [1] above 10 µM.

With `Nc1ncc(-c2cnn(C3CCNCC3)c2)cc1-c1nc2cc(N3CCOCC3)ccc2o1`, the results for the IC50 in experiment [1] and in experiment [2] were 6.43 µM and 1.05 µM, respectively.

Turning to `Nc1ncc(-c2cnn(C3CCNCC3)c2)cc1-c1nc2ccc(-c3cn[nH]c3)cc2o1`, the IC50 in experiment [1] worked out at 10 µM; in experiment [2], 1.78 µM.

Take `Nc1ncc(-c2cnn(C3CCNCC3)c2)cc1-c1nc2ccc(O)c(-c3ccccc3)c2o1`: the IC50 in experiment [1] was found to be 9.7 µM.

In the case of `Nc1ncc(-c2cnn(C3CCNCC3)c2)cc1-c1nc2ccc(NC(=O)c3ccccc3)cc2o1`, the IC50 came out at 3.19 µM in experiment [1] and 3.49 µM in experiment [2].

Regarding `Nc1ncc(-c2cnn(C3CCNCC3)c2)cc1-c1nc2cc(N3CCCCC3)ccc2o1`, the IC50 in experiment [1] turned out to be 0.85 µM.

For the compound `Nc1ncc(-c2cnn(C3CCNCC3)c2)cc1-c1nc2ccc(Nc3ccccn3)cc2o1`, the figures for the IC50 in experiment [1] and in experiment [2] were 6.05 µM and 4.2 µM, respectively.

For the compound `CNc1ccc2oc(-c3cc(-c4cnn(C5CCNCC5)c4)cnc3N)nc2c1`, inhibition in experiment [1] was half-maximal at 6.32 µM (IC50).

As for `Nc1ccc2nc(-c3cc(-c4cnn(C5CCNCC5)c4)cnc3N)oc2c1`, the IC50 in experiment [1] is 6.2 µM; in experiment [2], 1.94 µM.

Consider `Nc1ncc(-c2cnn(C3CCNCC3)c2)cc1-c1nc2ccc(OCc3ccc(F)cc3)cc2o1`, for which the IC50 in experiment [1] came out at 11.9 µM; in experiment [2], 1.31 µM.

Turning to `Nc1ncc(-c2cnn(C3CCNCC3)c2)cc1-c1nc2ccc(NC(=O)c3ccc(F)cc3)cc2o1`, 0.96 µM corresponded to half-maximal inhibition in experiment [1] (IC50).

Take `Nc1ncc(-c2cnn(C3CCNCC3)c2)cc1-c1nc2cc(N3CCCC3)ccc2o1`: half-maximal inhibition in experiment [1] (IC50) required 1.65 µM.

On to `Nc1ncc(-c2cnn(C3CCNCC3)c2)cc1-c1nc2ccc(NC(=O)Nc3ccccc3)cc2o1`, for which the figures for the IC50 in experiment [1] and in experiment [2] were 2.63 µM and 1.66 µM, respectively.

Consider `Cc1cc2nc(-c3cc(-c4cnn(C5CCNCC5)c4)cnc3N)oc2cc1O`, for which, in experiment [1], inhibition was half-maximal at 2.14 µM (IC50).

Take `Nc1ncc(-c2cnn(C3CCNCC3)c2)cc1-c1nc2ccc(Oc3ncccn3)cc2o1`: the IC50 in experiment [1] is above 10 µM; in experiment [2], 3.1 µM.

`CC(C)Nc1ccc2nc(-c3cc(-c4cnn(C5CCNCC5)c4)cnc3N)oc2c1` came in with an IC50 in experiment [1] above 10 µM.

Consider `Nc1ncc(-c2cnn(C3CCNCC3)c2)cc1-c1nc2ccc(OCc3ccccc3)cc2o1`, for which the IC50 in experiment [1] is above 10 µM; in experiment [2], 6.9 µM.

Regarding `CS(=O)(=O)Oc1ccc2nc(-c3cc(-c4cnn(C5CCNCC5)c4)cnc3N)oc2c1`, the IC50 in experiment [1] was above 10 µM; in experiment [2], 6.4 µM.

The compound `CCCNc1ccc2oc(-c3cc(-c4cnn(C5CCNCC5)c4)cnc3N)nc2c1` registered an IC50 in experiment [1] of 3.19 µM.

For `Nc1ncc(-c2cnn(C3CCNCC3)c2)cc1-c1nc2ccc(N3CCCC3)cc2o1`, the IC50 was 0.34 µM in experiment [3], 0.008 µM in experiment [4] and 0.46 µM in experiment [1].

On to `Nc1ncc(-c2cnn(C3CCNCC3)c2)cc1-c1nc2ccc(Oc3ccc(F)cc3)cc2o1`, for which the IC50 in experiment [1] is above 10 µM; in experiment [2] it was 7.9 µM.

Turning to `Nc1ncc(-c2cnn(C3CCNCC3)c2)cc1-c1nc2ccc(O)c(-c3ccc4cn[nH]c4c3)c2o1`, the IC50 in experiment [1] is 6.5 µM.

In experiment [1], `COc1ccc(N(C(=O)Nc2ccc3nc(-c4cc(-c5cnn(C6CCNCC6)c5)cnc4N)oc3c2)c2ccccc2)cc1` showed an IC50 of 0.66 µM.

In the case of `COc1ccc(-c2ccc3nc(-c4cc(-c5cnn(C6CCNCC6)c5)cnc4N)oc3c2)cc1`, the IC50 in experiment [1] was found to be 3.06 µM; in experiment [2], 3.22 µM.

Take `Nc1ncc(-c2cnn(C3CCNCC3)c2)cc1-c1nc2ccc(N3CCCCC3)cc2o1`: the IC50 was 10.1 µM in experiment [1] and 4.3 µM in experiment [2].
